Converted amounts (≈) assume the structure as drawn. The source made the active and inactive calls. The calls are words filed in the database; no cut-off is given here.
Legend:
[1] = biological target: T1, Farnesyl pyrophosphate synthase (Homo sapiens) (UniProt P14324); assay: Inhibition of FPPS
T1 sequence (whole entry): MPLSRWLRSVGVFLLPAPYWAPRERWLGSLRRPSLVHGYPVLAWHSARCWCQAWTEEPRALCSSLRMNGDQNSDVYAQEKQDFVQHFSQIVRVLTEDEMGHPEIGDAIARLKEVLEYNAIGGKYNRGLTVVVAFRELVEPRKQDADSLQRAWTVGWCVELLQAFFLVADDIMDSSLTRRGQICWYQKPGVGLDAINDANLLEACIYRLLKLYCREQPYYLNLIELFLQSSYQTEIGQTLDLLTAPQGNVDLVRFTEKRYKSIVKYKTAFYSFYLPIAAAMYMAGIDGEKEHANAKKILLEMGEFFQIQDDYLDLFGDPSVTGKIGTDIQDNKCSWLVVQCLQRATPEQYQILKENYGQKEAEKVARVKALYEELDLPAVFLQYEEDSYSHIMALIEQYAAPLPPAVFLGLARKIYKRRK

[2] = biological target: T2, 4,4'-diapophytoene synthase (Staphylococcus aureus, UniProt A9JQL9); assay: Inhibition of Staphylococcus aureus His6-tagged CrtM expressed in Escherichia coli BL21(DE3) using Farnesyl pyrophosphate as substrate incubated for 30 mins prior to substrate addition by continuous spectrophotometric assay
T2 sequence (A9JQL9 whole entry): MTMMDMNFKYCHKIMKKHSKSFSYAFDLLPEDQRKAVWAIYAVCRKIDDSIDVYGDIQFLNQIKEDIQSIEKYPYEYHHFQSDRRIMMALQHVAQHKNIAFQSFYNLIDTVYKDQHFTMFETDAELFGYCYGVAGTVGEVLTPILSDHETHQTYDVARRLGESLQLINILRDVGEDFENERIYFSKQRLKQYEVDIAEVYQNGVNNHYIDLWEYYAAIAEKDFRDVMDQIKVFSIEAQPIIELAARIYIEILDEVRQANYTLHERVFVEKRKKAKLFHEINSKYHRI

[3] = Inhibition of Escherichia coli UPPS-mediated undecaprenyl pyrophosphate synthesis by continuous spectrophotometric assay
[4] = Inhibition of Staphylococcus aureus UPPS-mediated undecaprenyl pyrophosphate synthesis by continuous spectrophotometric assay
Staphylococcus aureus = assay: Antibacterial activity against methicillin-resistant Staphylococcus aureus USA300; assay type: functional
Escherichia coli [5] = assay: Antibacterial activity against Escherichia coli DH5alpha; assay type: functional, organism-based; details: DH5[alpha]
Bacillus anthracis = assay: Antibacterial activity against Bacillus anthracis str. Sterne; assay type: functional
Listeria monocytogenes = assay: Antibacterial activity against Listeria monocytogenes; assay type: functional
Enterococcus faecium = assay: Antibacterial activity against Enterococcus faecium U503; assay type: functional
[6] = Antibacterial activity against Streptococcus pyogenes M1; assay type: functional, Streptococcus pyogenes serotype M1
MCF7 = assay: Cytotoxicity against human MCF7 cells; assay type: cell-based
Escherichia coli [7] = assay: Antibacterial activity against Escherichia coli K12; assay type: functional, organism-based; details: K-12
[8] = biological target: T2, 4,4'-diapophytoene synthase; assay: Inhibition of Staphylococcus aureus isolate WT CrtM-mediated staphyloxanthin synthesis after 72 hrs by spectrophotometry

Structure (SMILES)	inhibition [1]	IC50 [2]	IC50 [3]	IC50 [4]	MIC90 (Staphylococcus aureus)	Activity (Escherichia coli [5])	MIC90 (Bacillus anthracis)	MIC90 (Listeria monocytogenes)	MIC90 (Enterococcus faecium)	MIC90 [6]	IC50 (MCF7)	Activity (Escherichia coli [7])	Ki [2]	IC50 [8]	Ki [3]
O=C(CP(=O)(O)O)NCCCc1cccc(Oc2ccccc2)c1	inactive	–	–	–	–	–	–	–	–	–	–	–	–	–	–
CCCCCCCCOc1ccc(C(=O)/C=C(\O)C(=O)O)cc1	inactive	> 300000 nM	500 nM	2000 nM	0.25 µg/mL (≈ 0.78 µM)	inactive	0.5 µg/mL (≈ 1.56 µM)	4 µg/mL (≈ 12.5 µM)	4 µg/mL (≈ 12.5 µM)	1 µg/mL (≈ 3.12 µM)	30000 nM	inactive	–	–	–
O=C(/C=C(\O)C(=O)O)NCCCc1cccc(Oc2ccccc2)c1	inactive	24000 nM	2200 nM	–	–	–	–	–	–	–	–	–	250 nM	4000 nM	–
O=P(O)(O)C(O)(Cc1cccc(-c2cccc3c2oc2ccccc23)c1)P(=O)(O)O	–	–	300 nM	–	–	–	–	–	–	–	–	–	–	–	–
CCCCCCCCCCOc1cccc(C(=O)/C=C(\O)C(=O)O)c1	inactive	67000 nM	1900 nM	730 nM	–	inactive	0.5 µg/mL (≈ 1.43 µM)	4 µg/mL (≈ 11.5 µM)	4 µg/mL (≈ 11.5 µM)	1 µg/mL (≈ 2.87 µM)	30000 nM	inactive	–	–	–
CCCCCCOc1cccc(CCCNC(=O)/C=C(\O)C(=O)O)c1	inactive	> 300000 nM	560 nM	750 nM	–	–	–	–	–	–	–	–	–	–	–
CCCCCCOc1cccc(Cn2ccc(O)c(C(=O)O)c2=O)c1	inactive	45300 nM	27000 nM	–	–	–	–	–	–	–	–	–	450 nM	33000 nM	–
O=C(/C=C(\O)C(=O)O)NCCCc1cccc(-c2ccccc2)c1	inactive	24000 nM	240 nM	1800 nM	–	–	–	–	–	–	–	–	–	–	120 nM
CCCCCCCCCCOc1cccc(Cn2ccc(O)c(C(=O)O)c2=O)c1	inactive	> 300000 nM	> 300000 nM	> 300000 nM	–	–	–	–	–	–	–	–	–	–	–

— ChEMBL document CHEMBL2062486, “HIV-1 Integrase Inhibitor-Inspired Antibacterials Targeting Isoprenoid Biosynthesis” (ACS Med Chem Lett, 2012)
